Test results published in ChEMBL document CHEMBL1146545, “Ainigmaptilones, sesquiterpenes from the Antarctic gorgonian coral Ainigmaptilon antarcticus” (J Nat Prod, 2003).
Activity calls are given as the source filed them. No cut-off for these calls is given here.

System: Antarctic bacterium
Assay: Antimicrobial activity against Antarctic bacteria at 5 mg/mL
Format: functional, organism-based

SMILES: C=C(C)[C@@H]1CC[C@]2(CO)C=CC(=O)[C@@H](C)[C@H]2C1
- Activity: Active
